We go through seven molecules from patent publication US20250136614A1, “2,7-SUBSTITUTED PYRROLO[2,1-F][1,2,4]TRIAZINE COMPOUND HAVING PROTEIN KINASE INHIBITORY ACTIVITY” (Magicbullettherapeutics Co., Ltd., priority 2021, published 2025).

Holding throughout (type): cell-based
One test has as its system H23. Briefly: Cancer cell growth inhibition (CellTiter-Glo, 72 hours). As to conditions: Homo sapiens, NCI-H23, H23 cells, read-out: GI50s (μM) H23. As for the experimental part: (§1) Seeding 3000 cells per well in a 96-well plate. After cell stabilization, treat the cells with compounds diluted in 0.5% DMSO at a ⅓ serial dilution and culture for 72 hours. Following treatment with CellTiter-Glo, luminescence is produced only in the presence of ATP, as luciferase degrades luciferin. Luminescence values were measured using Envision (PerkinElmer). Based on the measured luminescence values, the concentration of compounds causing cell death was calculated to determine the GI50 value.
(§2) The activity values were categorized into three levels • A: IC50<1 μM • B: 1 μM≤IC50<10 μM, • C: IC50≥10 μM

Another test concerns H1975. Described as above. The following applies: Homo sapiens, NCI-H1975, H1975 cells, read-out: GI50s (μM) H1975. How it is done: as §1, §2
The next test concerns MDA-MB-231. Described as above. The following applies: Homo sapiens, MDA-MB-231 cells, read-out: GI50s (μM) MDA-MB-231. As for the experimental part:
as §1, §2

The test system of another test is HCT116. The test is described as above. As to conditions: Homo sapiens, HCT-116, HCT116 cells, read-out: GI50s (μM) HCT116. As for the experimental part: as §1, §2
The test system of the next test is colo205. The description is as above. As to conditions: Homo sapiens, COLO 205, colo205 cells, read-out: GI50s (μM) colo205. As for the experimental part: as §1, §2
A further test relates to H358. Described as above. The following applies: Homo sapiens, NCI-H358, H358 cells, read-out: GI50s (μM) H358. How it is done:
as §1, §2

The subject of the next test is Ba/F3 parental. Briefly: Ba/F3 cell growth inhibition (CellTiter-Glo, 72 hours). As to conditions: Mus musculus, BaF3, Ba/F3 parental cells, read-out: Ba/F3 GI50s (μM) parental. How it is done:
(§3) Seeding 3000 cells per well in a 96-well plate. After cell stabilization, treat the cells with compounds diluted in […] at a ⅓ serial dilution and culture for 72 hours. Following treatment with CellTiter-Glo, luminescence is produced only in the presence of ATP, as luciferase degrades luciferin. Luminescence values were measured using Envision (PerkinElmer). Based on the measured luminescence values, the concentration of compounds causing cell death was calculated to determine the GI50 value.
(§4) The activity values were categorized into three levels. • A: IC50<1 μM • B: 1 μM≤IC50<10 μM, • C: IC50≥10 μM

In the next test the target is T1, Ba/F3 FLT3 (ITD) (Homo sapiens, UniProt P36888, cells depend on it, form not given).
T1 sequence (P36888 1-993): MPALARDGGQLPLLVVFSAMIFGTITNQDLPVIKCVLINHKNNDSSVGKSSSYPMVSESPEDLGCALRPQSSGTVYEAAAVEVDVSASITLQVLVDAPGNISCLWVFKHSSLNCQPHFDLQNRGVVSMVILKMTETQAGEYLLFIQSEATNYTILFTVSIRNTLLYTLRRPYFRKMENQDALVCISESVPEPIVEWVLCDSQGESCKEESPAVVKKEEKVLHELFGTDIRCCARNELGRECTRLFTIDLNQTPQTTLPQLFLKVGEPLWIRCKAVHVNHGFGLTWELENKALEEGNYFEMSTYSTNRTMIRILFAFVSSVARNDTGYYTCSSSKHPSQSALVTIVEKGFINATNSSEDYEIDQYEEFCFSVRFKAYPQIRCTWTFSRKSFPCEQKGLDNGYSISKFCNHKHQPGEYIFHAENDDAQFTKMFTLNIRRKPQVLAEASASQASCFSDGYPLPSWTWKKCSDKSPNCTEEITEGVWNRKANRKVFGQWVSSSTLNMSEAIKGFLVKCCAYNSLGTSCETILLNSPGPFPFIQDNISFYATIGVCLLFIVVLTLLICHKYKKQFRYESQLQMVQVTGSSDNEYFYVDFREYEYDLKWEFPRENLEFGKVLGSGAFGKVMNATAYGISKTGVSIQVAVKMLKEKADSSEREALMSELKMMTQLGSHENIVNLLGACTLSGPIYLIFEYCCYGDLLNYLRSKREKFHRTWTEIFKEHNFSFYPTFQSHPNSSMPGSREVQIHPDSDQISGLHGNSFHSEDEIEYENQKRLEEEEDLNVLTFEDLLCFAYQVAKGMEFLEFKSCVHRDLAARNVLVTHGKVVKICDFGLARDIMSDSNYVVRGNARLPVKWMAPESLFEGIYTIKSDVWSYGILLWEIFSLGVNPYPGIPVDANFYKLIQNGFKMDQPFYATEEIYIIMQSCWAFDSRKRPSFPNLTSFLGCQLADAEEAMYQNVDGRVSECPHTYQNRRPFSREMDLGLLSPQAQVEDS
The description is as above. The following applies: read-out: Ba/F3 GI50s (μM) FLT3 (ITD). How it is done:
as §3, §4

For `O=C1CCCCOc2ccc(cc2)-c2ccc3cnc(nn23)Nc2ccc(cc2)OCCCN1` [Example 38, (Z)-5,15-dioxa-3,9-diaza-2(7,2)-pyrrolo[2,1-f][1,2,4]triazina-1,4(1,4)-dibenzenacyclopentadecaphan-10-one], the IC50 with H23 is at least 10 µM; in the test on H1975 it was at least 10 µM; in the test on MDA-MB-231, at least 10 µM; in the test on HCT116 it was 1 to 10 µM; in the test with colo205, at least 10 µM; with H358, 1 to 10 µM. For the same molecule, in the test with Ba/F3 parental, the IC50 is at least 10 µM. For the same molecule, the GI50 at Ba/F3 FLT3 (ITD) is under 1 µM.
For `CS(=O)(=O)Nc1cccc(-c2ccc3cnc(Nc4ccc(N5CCN(CCCCCOc6cccc7c6C(=O)N(C6CCC(=O)NC6=O)C7=O)CC5)cc4)nn23)c1` (centres unmarked) [Example 39], the IC50 in the test with H23, in the test on H1975, with MDA-MB-231, in the test with HCT116, in the test with colo205 and with H358 was at least 10 µM each time. Moreover, in the test on Ba/F3 parental, the IC50 was at least 10 µM. On Ba/F3 FLT3 (ITD), the GI50 was at least 10 µM.
Take `CS(=O)(=O)Nc1cccc(-c2ccc3cnc(Nc4ccc(N5CCN(CCCOc6cccc7c6C(=O)N(C6CCC(=O)NC6=O)C7=O)CC5)cc4)nn23)c1` (centres unmarked) [Example 40]: the IC50 in the test on H23 was at least 10 µM; in the test on H1975, at least 10 µM; in the test with MDA-MB-231 it was at least 10 µM; in the test on HCT116, 1 to 10 µM; in the test on colo205, at least 10 µM; with H358 it was at least 10 µM. Moreover, the IC50 in the test with Ba/F3 parental was 1 to 10 µM. The GI50 on Ba/F3 FLT3 (ITD) was under 1 µM.
Consider `CS(=O)(=O)Nc1cccc(-c2ccc3cnc(Nc4ccc(N5CCN(CCCCCCCOc6cccc7c6C(=O)N(C6CCC(=O)NC6=O)C7=O)CC5)cc4)nn23)c1` (centres unmarked) [Example 41], for which the IC50 with H23, in the test with H1975, in the test with MDA-MB-231, in the test with HCT116, in the test on colo205 and in the test with H358 was at least 10 µM throughout. Further, the IC50 in the test on Ba/F3 parental fell in the range of 1 to 10 µM. Also, the GI50 on Ba/F3 FLT3 (ITD) was under 1 µM.
On to `CS(=O)(=O)Nc1cccc(-c2ccc3cnc(Nc4ccc(N5CCN(CCCCCCCCCCCOc6cccc7c6C(=O)N(C6CCC(=O)NC6=O)C7=O)CC5)cc4)nn23)c1` (centres unmarked) [Example 42], for which the IC50 in the test on H23, in the test with H1975, in the test with MDA-MB-231, in the test with HCT116, in the test on colo205 and in the test with H358 was at least 10 µM throughout. In the test with Ba/F3 parental, the IC50 was in the range of 1 to 10 µM. Besides, the GI50 at Ba/F3 FLT3 (ITD) was under 1 µM.
Take `Cc1ncsc1-c1ccc(CNC(=O)[C@@H]2C[C@@H](O)CN2C(=O)[C@@H](NC(=O)COCCN2CCN(c3ccc(Nc4ncc5ccc(-c6cccc(NS(C)(=O)=O)c6)n5n4)cc3)CC2)C(C)(C)C)cc1` [Example 83, (2S,4R)-1-((S)-3,3-dimethyl-2-(2-(2-(4-(4-((7-(3-(methanesulfonamido)phenyl)pyrrolo[2,1-f][1,2,4]triazin-2-yl)amino)phenyl)piperazin-1-yl)ethoxy)acetaamino)butanoyl)-4-hydroxy-N-(4-(4-methylthiazol-5-yl)benzyl)pyrrolidin-2-carboxamide]: the IC50 is 1 to 10 µM in the test on H23; 1 to 10 µM in the test with H1975; at least 10 µM with MDA-MB-231; 1 to 10 µM in the test with HCT116; at least 10 µM in the test with colo205; 1 to 10 µM in the test with H358. In the test on Ba/F3 parental, the IC50 is 1 to 10 µM. At Ba/F3 FLT3 (ITD), the GI50 was under 1 µM.
On to `Cc1ncsc1-c1ccc(CNC(=O)[C@@H]2C[C@@H](O)CN2C(=O)[C@@H](NC(=O)CCOCCOCCN2CCN(c3ccc(Nc4ncc5ccc(-c6cccc(NS(C)(=O)=O)c6)n5n4)cc3)CC2)C(C)(C)C)cc1` [Example 84, (2S,4R)-1-((S)-3,3-dimethyl-2-(3-(2-(2-(4-(4-((7-(3-(methanesulfonamido)phenyl)pyrrolo[2,1-f][1,2,4]triazin-2-yl)amino)phenyl)piperazin-1-yl)ethoxy)ethoxy)propanamido)butanoyl)-4-hydroxy-N-(4-(4-methylthiazol-5-yl)benzyl)pyrrolidin-2-carboxamide], for which the IC50 in the test on H23 is 1 to 10 µM; in the test with H1975 it was 1 to 10 µM; in the test with MDA-MB-231, at least 10 µM; in the test on HCT116 it was 1 to 10 µM; in the test with colo205, at least 10 µM; with H358, 1 to 10 µM. The IC50 in the test with Ba/F3 parental was in the range of 1 to 10 µM. Also, on Ba/F3 FLT3 (ITD), the GI50 lay within 1 to 10 µM.
